Test results from patent EP0552657A1, “Use of pure Boswellic acid” (AMMON, Hermann P.T., priority 1992, dated 1993).

molecular target: T1, 5-Lipoxygenase (Rattus norvegicus, UniProt P12527); assay: 5-lipoxygenase inhibition by boswellic acids (stimulated neutrophil granulocytes from rat peritoneum); type: cell-based, Ratte; details: read-out: IC50-Werte für die 5-LO-Hemmung
T1 sequence (P12527 1-673): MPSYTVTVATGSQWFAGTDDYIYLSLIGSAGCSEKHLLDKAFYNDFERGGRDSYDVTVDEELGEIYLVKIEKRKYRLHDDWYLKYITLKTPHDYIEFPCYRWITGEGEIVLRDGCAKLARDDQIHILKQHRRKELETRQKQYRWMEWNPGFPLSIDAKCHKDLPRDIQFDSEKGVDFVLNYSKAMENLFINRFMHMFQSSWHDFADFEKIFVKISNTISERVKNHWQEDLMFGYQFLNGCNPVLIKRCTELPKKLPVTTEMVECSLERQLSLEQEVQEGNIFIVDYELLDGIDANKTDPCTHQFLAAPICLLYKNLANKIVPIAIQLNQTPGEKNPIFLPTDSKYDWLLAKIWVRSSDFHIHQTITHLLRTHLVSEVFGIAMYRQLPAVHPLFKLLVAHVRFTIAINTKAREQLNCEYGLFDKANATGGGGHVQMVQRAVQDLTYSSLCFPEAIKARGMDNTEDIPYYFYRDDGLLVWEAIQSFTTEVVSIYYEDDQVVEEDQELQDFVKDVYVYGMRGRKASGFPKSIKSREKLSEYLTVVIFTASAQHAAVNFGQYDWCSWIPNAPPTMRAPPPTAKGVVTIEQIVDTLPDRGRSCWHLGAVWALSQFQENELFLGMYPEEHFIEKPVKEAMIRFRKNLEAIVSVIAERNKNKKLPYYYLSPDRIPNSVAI
From the text: Mit Hilfe des Testes mit Calcium- und Ionophor-stimulierten neutrophilen Leukozyten der Ratte konnte nachgewiesen werden, daß Extrakte aus Boswellia serrata vorwiegend die Bildung von Leukotrienen blockieren, dagegen die Prostaglandinsynthese erst in wesentlich höheren Konzentrationen beeinflussen (vgl. zur Methodik: a) Messung der Leukotriene: Safayhi et al., Biochem. Pharmacology, 34:2691-2694, 1985; b) Messung der Prostaglandine: Kommerzielle Radio-Immunoassay-Kits der Firma Amersham für 6-Keto-PGF1α).
Anhand der beigefügten Zeichnungen wird die Erfindung näher erläutert. […] Methode: Safayhi et al., JPET accepted. • Fig. 4 die Elutionsprofile der durch Eisen/Ascorbat-Stimulation aus exogener Arachidonsäure im zellfreien System entstehenden oxidierten und hydroxylierten Produkte in Gegenwart steigender Konzentrationen von Acetyl-boswelliasäure (A) und Nordihydroguaiaretsäure (B). Methode: Safayhi et al., JPET accepted.

Which IC50 does the source give for `CC(=O)O[C@@H]1CC[C@@]2(C)[C@@H](CC[C@]3(C)[C@@H]2CC=C2[C@@H]4[C@@H](C)[C@H](C)CC[C@]4(C)CC[C@]23C)[C@@]1(C)C(=O)O` [Acetyl-boswelliasäure] here?
The IC50 was 7 µM.

`CC(=O)O[C@@H]1CC[C@@]2(C)[C@@H](CC[C@]3(C)[C@@H]2CC=C2[C@@H]4CC(C)(C)CC[C@]4(C)CC[C@]23C)[C@@]1(C)C(=O)O` [Acetyl-α-boswelliasäure] was tested. Which IC50 did it give?
Its IC50 is 7 µM.

Which IC50 does the source give for `CC1(C)CC[C@]2(C)CC[C@]3(C)C(=CC[C@@H]4[C@@]5(C)CC[C@@H](O)[C@](C)(C(=O)O)[C@@H]5CC[C@]43C)[C@@H]2C1` [α-Boswelliasäure] here?
Its IC50 is 5 µM.

`C[C@H]1[C@H](C)CC[C@]2(C)CC[C@]3(C)C(=CC(=O)[C@@H]4[C@@]5(C)CC[C@@H](O)[C@](C)(C(=O)O)[C@@H]5CC[C@]43C)[C@H]12` [11-Keto-ß-boswelliasäure] was tested. Which IC50 did it give?
Its IC50 is 5 µM.

How did the IC50 turn out when `CC(=O)O[C@@H]1CC[C@@]2(C)[C@@H](CC[C@]3(C)[C@@H]2C(=O)C=C2[C@@H]4[C@@H](C)[C@H](C)CC[C@]4(C)CC[C@]23C)[C@@]1(C)C(=O)O` [Acetyl-11-keto-ß-boswelliasäure] was run?
Its IC50 is 2 µM.

How did the IC50 turn out when `C[C@H]1[C@H](C)CC[C@]2(C)CC[C@]3(C)C(=CC[C@@H]4[C@@]5(C)CC[C@@H](O)[C@](C)(C(=O)O)[C@@H]5CC[C@]43C)[C@H]12` [ß-Boswelliasäure] was run?
Its IC50 is 5 µM.
